Results published in patent publication US20230114728A1 (Venatorx Pharmaceuticals, Inc., priority 2019, published 2023).
pEC50: −log10 of the molar value. Values after ≈ are worked out from the molar mass of the structure shown.

What was measured:
E. coli K12 PBP3 = target: T1, E. coli K12 PBP3 (Escherichia coli, UniProt P0AD68); assay: biochemical; type: binding
T1 construct: made in house
Procedure, shortened: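 Fluorescence polarization (ex 490/em 520 nm) competition of inhibitors against Bocillin-FL at 0.1 μM, read up to 60 min. Final PBP levels: E. coli PBP3 1.5 μM; A. baumannii PBP2 2.5 μM, PBP3 0.2 μM in Tris pH 8.0/NaCl/glycerol/Tween 20; N. gonorrhoeae PBP2 […] in Hepes pH 8.0/NaCl/glycerol. EC50 = concentration halving PBP-bound Bocillin-FL.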

E. coli AG100A = assay: Broth microdilution MIC in CAMHB; type: cell-based; details: Escherichia coli, read-out: Minimum Inhibitory Concentration, E. coli AG100A
Procedure, shortened: (§1)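 MIC, read by eye, is the lowest compound concentration giving no bacterial growth after 16-20 h at 37° C. Test compounds are serially diluted 2-fold in CAMHB and seeded with 2-8×10^5 CFU/mL of bacteria taken from a 3-5 h shaking culture, following CLSI methods.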

E. coli AG100 = assay: Broth microdilution MIC in CAMHB; type: cell-based; details: Escherichia coli; E. coli AG100 (wild-type parent); MHB; read-out: Minimum Inhibitory Concentration, E. coli AG100
Procedure, shortened: as §1

[1] = test system: K. pneumoniae UMM producing SHV-5 and KPC-2; assay: Broth microdilution MIC in CAMHB; type: cell-based; details: Klebsiella pneumoniae, read-out: Minimum Inhibitory Concentration, K. pneumoniae UMM
Procedure, shortened: as §1

[2] = test system: K. pneumoniae SI-117 producing VIM-1; assay: Broth microdilution MIC in CAMHB; type: cell-based; details: Klebsiella pneumoniae, read-out: Minimum Inhibitory Concentration, K. pneumoniae SI-117
Procedure, shortened: as §1

A. baumannii ATCC 19606 = assay: Broth microdilution MIC in CAMHB; type: cell-based; details: Acinetobacter baumannii, ATCC19606; MHB; read-out: Minimum Inhibitory Concentration, A. baumannii ATCC 19606
Procedure, shortened: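 CLSI microdilution; CAMHB; inoculum 2-8×10^5 CFU/mL from 3-5 h 37° C culture; 2-fold compound series; 16-20 h, 37° C; MIC = lowest well without visible growth.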

P. aeruginosa ATCC 27853 = assay: Broth microdilution MIC in CAMHB; type: cell-based; details: Pseudomonas aeruginosa, ATCC27853; MHB; read-out: Minimum Inhibitory Concentration, P. aeruginosa ATCC 27853
Procedure, shortened: as §1

[3] = test system: P. aeruginosa (ΔmexAB-oprM); assay: Broth microdilution MIC in CAMHB; type: cell-based; details: Pseudomonas aeruginosa, read-out: Minimum Inhibitory Concentration, P. aeruginosa ΔmexAB-OprM
Procedure, shortened: as §1

E. coli ATCC 25922 = assay: Broth microdilution MIC in CAMHB; type: cell-based; details: Escherichia coli, ATCC25922; E. coli ATCC 25922; MHB; read-out: Minimum Inhibitory Concentration, E. coli 25922
Procedure, shortened: as §1

T1 sequence (P0AD68 1-577): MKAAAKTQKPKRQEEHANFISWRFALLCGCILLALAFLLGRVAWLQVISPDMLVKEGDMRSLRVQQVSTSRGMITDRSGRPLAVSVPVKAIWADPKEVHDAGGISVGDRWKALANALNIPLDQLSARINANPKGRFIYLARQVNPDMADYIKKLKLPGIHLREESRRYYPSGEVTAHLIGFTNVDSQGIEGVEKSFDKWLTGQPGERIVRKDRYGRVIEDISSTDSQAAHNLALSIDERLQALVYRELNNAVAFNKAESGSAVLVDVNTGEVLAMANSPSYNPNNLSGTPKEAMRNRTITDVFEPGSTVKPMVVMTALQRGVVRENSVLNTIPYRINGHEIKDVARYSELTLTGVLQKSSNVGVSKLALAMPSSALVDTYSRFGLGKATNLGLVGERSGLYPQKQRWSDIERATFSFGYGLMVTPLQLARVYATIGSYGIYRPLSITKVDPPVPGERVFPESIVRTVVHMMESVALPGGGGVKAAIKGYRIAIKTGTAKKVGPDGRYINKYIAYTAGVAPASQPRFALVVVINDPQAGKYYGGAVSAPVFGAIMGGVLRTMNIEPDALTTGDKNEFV

Structure (SMILES) | pEC50 (E. coli K12 PBP3) | MIC (E. coli AG100A) [µg/mL] | MIC (E. coli AG100) [µg/mL] | MIC [1] [µg/mL] | MIC [2] [µg/mL] | MIC (A. baumannii ATCC 19606) [µg/mL] | MIC (P. aeruginosa ATCC 27853) [µg/mL] | MIC [3] [µg/mL] | MIC (E. coli ATCC 25922) [µg/mL]
CCN1CCN(C(=O)NC(C(=O)N[C@H]2Cc3cccc(C(=O)O)c3OB2O)c2cc([N+](=O)[O-])c(O)cc2F)C(=O)C1=O (stereo partly drawn) [Example 184, (3R)-3-(2-(4-ethyl-2,3-dioxopiperazine-1-carboxamido)-2-(2-fluoro-4-hydroxy-5-nitrophenyl)acetamido)-2-hydroxy-3,4-dihydro-2H-benzo[e][1,2]oxaborinine-8-carboxylic acid] | > 4.52 | 2 to 4 (≈ 3.41 to 6.81 µM) | 32 to 64 (≈ 54.5 to 109 µM) | 32 to 64 (≈ 54.5 to 109 µM) | > 128 | > 128 | > 128 | 8 to 16 (≈ 13.6 to 27.2 µM) | 32 to 64 (≈ 54.5 to 109 µM)
CCN1CCN(C(=O)N[C@H](C(=O)N[C@H]2Cc3cccc(C(=O)O)c3OB2O)c2ccc(C(=O)O)c(F)c2Cl)C(=O)C1=O (single isomer, unassigned) [Example 202] | 3.30 to 4.52 | 32 to 64 (≈ 52.9 to 106 µM) | > 128 | > 128 | > 128 | > 128 | > 128 | > 128 | > 128
NS(=O)(=O)Nc1ccc(F)c(C(NC(=O)N2CCN(CCF)C(=O)C2=O)C(=O)N[C@H]2Cc3cccc(C(=O)O)c3OB2O)c1 (stereo partly drawn) [Example 198, (3R)-3-(2-(2-fluoro-5-(sulfamoylamino)phenyl)-2-(4-(2-fluoroethyl)-2,3-dioxopiperazine-1-carboxamido)acetamido)-2-hydroxy-3,4-dihydro-2H-benzo[e][1,2]oxaborinine-8-carboxylic acid] | > 4.52 | 0.5 to 1 (≈ 0.783 to 1.57 µM) | 8 to 16 (≈ 12.5 to 25.1 µM) | 32 to 64 (≈ 50.1 to 100 µM) | 32 to 64 (≈ 50.1 to 100 µM) | > 128 | > 128 | 2 to 4 (≈ 3.13 to 6.27 µM) | 8 to 16 (≈ 12.5 to 25.1 µM)
CCN1CCN(C(=O)NC(C(=O)N[C@H]2Cc3cccc(C(=O)O)c3OB2O)c2cc(C#N)c(O)cc2F)C(=O)C1=O (stereo partly drawn) [Example 209, (3R)-3-(2-(5-cyano-2-fluoro-4-hydroxyphenyl)-2-(4-ethyl-2,3-dioxopiperazine-1-carboxamido)acetamido)-2-hydroxy-3,4-dihydro-2H-benzo[e][1,2]oxaborinine-8-carboxylic acid] | > 4.52 | 2 to 4 (≈ 3.53 to 7.05 µM) | 32 to 64 (≈ 56.4 to 113 µM) | 32 to 64 (≈ 56.4 to 113 µM) | > 128 | > 128 | > 128 | 8 to 16 (≈ 14.1 to 28.2 µM) | 32 to 64 (≈ 56.4 to 113 µM)
CCN1CCN(C(=O)NC(C(=O)N[C@H]2Cc3cccc(C(=O)O)c3OB2O)c2c(F)cc(NC(C)=O)cc2F)C(=O)C1=O (stereo partly drawn) [Example 188, (3R)-3-(2-(4-acetamido-2,6-difluorophenyl)-2-(4-ethyl-2,3-dioxopiperazine-1-carboxamido)acetamido)-2-hydroxy-3,4-dihydro-2H-benzo[e][1,2]oxaborinine-8-carboxylic acid] | > 4.52 | 2 to 4 (≈ 3.33 to 6.65 µM) | 32 to 64 (≈ 53.2 to 106 µM) | 32 to 64 (≈ 53.2 to 106 µM) | > 128 | > 128 | > 128 | 32 to 64 (≈ 53.2 to 106 µM) | 32 to 64 (≈ 53.2 to 106 µM)
NCCN1CCN(C(=O)N[C@@H](C(=O)N[C@H]2Cc3cccc(C(=O)O)c3OB2O)c2c(O)cc(O)cc2F)C(=O)C1=O (single isomer, unassigned) [Example 194] | > 4.52 | 2 to 4 (≈ 3.49 to 6.98 µM) | 8 to 16 (≈ 14 to 27.9 µM) | 8 to 16 (≈ 14 to 27.9 µM) | 32 to 64 (≈ 55.8 to 112 µM) | 32 to 64 (≈ 55.8 to 112 µM) | > 128 | 8 to 16 (≈ 14 to 27.9 µM) | 8 to 16 (≈ 14 to 27.9 µM)
NCCN1CCN(C(=O)N[C@@H](C(=O)N[C@H]2Cc3cccc(C(=O)O)c3OB2O)c2ccc(O)c(Cl)c2F)C(=O)C1=O (single isomer, unassigned) [Example 186] | > 4.52 | 2 to 4 (≈ 3.38 to 6.76 µM) | 8 to 16 (≈ 13.5 to 27 µM) | 32 to 64 (≈ 54.1 to 108 µM) | 32 to 64 (≈ 54.1 to 108 µM) | > 128 | 32 to 64 (≈ 54.1 to 108 µM) | 8 to 16 (≈ 13.5 to 27 µM) | 8 to 16 (≈ 13.5 to 27 µM)
NCCCN1CCN(C(=O)N[C@@H](C(=O)N[C@H]2Cc3cccc(C(=O)O)c3OB2O)c2c(O)cc(O)cc2F)C(=O)C1=O (single isomer, unassigned) [Example 195] | > 4.52 | 2 to 4 (≈ 3.41 to 6.81 µM) | 8 to 16 (≈ 13.6 to 27.2 µM) | 8 to 16 (≈ 13.6 to 27.2 µM) | 32 to 64 (≈ 54.5 to 109 µM) | 32 to 64 (≈ 54.5 to 109 µM) | > 128 | 8 to 16 (≈ 13.6 to 27.2 µM) | 8 to 16 (≈ 13.6 to 27.2 µM)
CCN1CCN(C(=O)NC(C(=O)N[C@H]2Cc3cccc(C(=O)O)c3OB2O)c2ccc(C(=O)O)c(O)c2)C(=O)C1=O (stereo partly drawn) [Example 196, (3R)-3-(2-(4-carboxy-3-hydroxyphenyl)-2-(4-ethyl-2,3-dioxopiperazine-1-carboxamido)acetamido)-2-hydroxy-3,4-dihydro-2H-benzo[e][1,2]oxaborinine-8-carboxylic acid] | > 4.52 | 2 to 4 (≈ 3.52 to 7.04 µM) | 32 to 64 (≈ 56.3 to 113 µM) | 8 to 16 (≈ 14.1 to 28.2 µM) | 32 to 64 (≈ 56.3 to 113 µM) | > 128 | 32 to 64 (≈ 56.3 to 113 µM) | 2 to 4 (≈ 3.52 to 7.04 µM) | 32 to 64 (≈ 56.3 to 113 µM)
O=C(O)c1cccc2c1OB(O)[C@@H](NC(=O)C(NC(=O)N1CCN(CC3CNC3)C(=O)C1=O)c1c(F)cc(O)cc1F)C2 (stereo partly drawn) [Example 193, (3R)-3-(2-(4-(azetidin-3-ylmethyl)-2,3-dioxopiperazine-1-carboxamido)-2-(2,6-difluoro-4-hydroxyphenyl)acetamido)-2-hydroxy-3,4-dihydro-2H-benzo[e][1,2]oxaborinine-8-carboxylic acid] | > 4.52 | 0.5 to 1 (≈ 0.831 to 1.66 µM) | 8 to 16 (≈ 13.3 to 26.6 µM) | 8 to 16 (≈ 13.3 to 26.6 µM) | 32 to 64 (≈ 53.2 to 106 µM) | > 128 | > 128 | 8 to 16 (≈ 13.3 to 26.6 µM) | 8 to 16 (≈ 13.3 to 26.6 µM)
NCCN1CCN(C(=O)N[C@H](C(=O)N[C@H]2Cc3cccc(C(=O)O)c3OB2O)c2ccc(O)c(Cl)c2F)C(=O)C1=O (single isomer, unassigned) [Example 187] | 3.30 to 4.52 | 8 to 16 (≈ 13.5 to 27 µM) | > 128 | > 128 | > 128 | > 128 | > 128 | 32 to 64 (≈ 54.1 to 108 µM) | > 128
CCN1CCN(C(=O)NC(C(=O)N[C@H]2Cc3cccc(C(=O)O)c3OB2O)c2cc(NS(N)(=O)=O)ccc2F)C(=O)C1=O (stereo partly drawn) [Example 197, (3R)-3-(2-(4-ethyl-2,3-dioxopiperazine-1-carboxamido)-2-(2-fluoro-5-(sulfamoylamino)phenyl)acetamido)-2-hydroxy-3,4-dihydro-2H-benzo[e][1,2]oxaborinine-8-carboxylic acid] | > 4.52 | 0.5 to 1 (≈ 0.806 to 1.61 µM) | 8 to 16 (≈ 12.9 to 25.8 µM) | 8 to 16 (≈ 12.9 to 25.8 µM) | 32 to 64 (≈ 51.6 to 103 µM) | 32 to 64 (≈ 51.6 to 103 µM) | > 128 | 2 to 4 (≈ 3.22 to 6.45 µM) | 8 to 16 (≈ 12.9 to 25.8 µM)
NCCN1CCN(C(=O)N[C@H](C(=O)N[C@H]2Cc3cccc(C(=O)O)c3OB2O)c2c(F)cccc2F)C(=O)C1=O (single isomer, unassigned) [Example 204] | < 3.30 | 32 to 64 (≈ 57.2 to 114 µM) | > 128 | > 128 | > 128 | > 128 | > 128 | > 128 | > 128
NCCN1CCN(C(=O)N[C@@H](C(=O)N[C@H]2Cc3cccc(C(=O)O)c3OB2O)c2c(F)cccc2Cl)C(=O)C1=O (single isomer, unassigned) [Example 205] | 3.30 to 4.52 | 8 to 16 (≈ 13.9 to 27.8 µM) | > 128 | > 128 | > 128 | > 128 | > 128 | 32 to 64 (≈ 55.6 to 111 µM) | > 128
NCCN1CCN(C(=O)N[C@@H](C(=O)N[C@H]2Cc3cccc(C(=O)O)c3OB2O)c2ccc(O)c([N+](=O)[O-])c2)C(=O)C1=O (single isomer, unassigned) [Example 199] | > 4.52 | 2 to 4 (≈ 3.42 to 6.85 µM) | > 128 | > 128 | > 128 | > 128 | > 128 | 8 to 16 (≈ 13.7 to 27.4 µM) | 32 to 64 (≈ 54.8 to 110 µM)
CCN1CCN(C(=O)NC(C(=O)N[C@H]2Cc3cccc(C(=O)O)c3OB2O)c2cc(C#N)c(OC)cc2F)C(=O)C1=O (stereo partly drawn) [Example 192, (3R)-3-(2-(5-cyano-2-fluoro-4-methoxyphenyl)-2-(4-ethyl-2,3-dioxopiperazine-1-carboxamido)acetamido)-2-hydroxy-3,4-dihydro-2H-benzo[e][1,2]oxaborinine-8-carboxylic acid] | 3.30 to 4.52 | 32 to 64 (≈ 55 to 110 µM) | > 128 | > 128 | > 128 | > 128 | > 128 | 32 to 64 (≈ 55 to 110 µM) | > 128
